Here are results for 15 compounds from US20250059162A1, “MULTI-PROTEIN DEGRADATION AGENT HAVING IMIDE SKELETON” (SUZHOU KINTOR PHARMACEUTICALS, INC., priority 2021, published 2025).

Bounds are passed on as bounds.

Format in all cases: cell-based
Assay [1] addresses T1, IKZF2 protein (Homo sapiens, UniProt Q9UKS7).
T1 construct: endogenous in cells; host or cells: HL60
Nature of the assay: IKZF2 protein degradation (Western blot). Particulars: compound at 10 nM, 24 h, gray value relative to Ctrl (DMSO). The procedure: (§1) HL60 cells in the exponential growth phase were digested and plated into a 6-well plate at 1×10^6 cells per well. The cell culture medium was RPMI-1640 (meilunbio, MA0215). After a day of adherent growth of the cells, the compound of the present invention was added as a test drug for culture, and proteins were extracted 24 h later (Ctrl meant adding only DMSO at the same volume).
(§2) In the 6-well plate, the culture medium RPMI-1640 (meilunbio, MA0215) was removed, and the cells were washed once with PBS, digested with trypsin, and centrifuged and collected separately into 1.5 mL centrifuge tubes. 100 μL of RIPA lysis buffer (containing 100 μM PMSF) was added to each tube, mixed thoroughly, allowed to stand on ice for 30 min and then centrifuged at 12000 rpm at 4° C. using a centrifuge for 20 min. The supernatant was used for Western blotting experiments. The sample can be stored at −80° C.
(§3) By using the BCA protein concentration determination kit (from Thermo Fisher, Cat. No. 23225), the BSA standard determination solution and the samples to be tested (the samples to be tested can be diluted and then tested) were prepared according to the table A below. Samples were added to the 96-well plate. Each well was supplemented with PBS to 20 μL, and then 200 μL of BCA working solution (prepared according to the kit) was added respectively and mixed evenly. The plate was placed at 60° C. for 10 min, and then the absorbance at 562 nm was detected. After the reading was recorded, a standard curve was plotted using concentration gradients of the standards, and the absorbance of the samples was substituted to calculate the protein concentration of the samples.
(§4) • 2.1 Protein denaturation: RIPA protein buffer (purchased from Solarbio, Cat. No. R0010) and 5× Loading Buffer (SDS, glycerin, bromophenol blue, TRIS) (purchased from Solarbio, Cat. No. P1040) were added, and the protein samples were denatured at 100° C. for 5 min. • 2.2 Sample loading and electrophoresis: 10% precast gel and the corresponding electrophoresis buffer were used. […]

Assay [2] deals with T2, CK1α protein (Homo sapiens, UniProt P48729).
T2 construct: endogenous in cells; host or cells: HL60
Nature of the assay: CK1α protein degradation (Western blot). Particulars: compound at 10 nM, 24 h, gray value relative to Ctrl (DMSO). The procedure: as §1, §2, §3, §4

For assay [3], the target named is T3, c-Myc protein (Homo sapiens, UniProt P01106).
T3 construct: degradation of myc and GSPT1 proteins in HL60 cells; endogenous in cells; host or cells: HL60
Nature of the assay: c-Myc protein degradation in HL60 cells (Western blot). Particulars: for remaining activity at 0.01 µM: HL-60, compound at 10 nM, 24 h, gray value relative to Ctrl (DMSO), read-out: Remaining amount of c-Myc protein (@10 nM/Ctrl). The procedure: as §1, §2, §3
(§5) • 2.1 Protein denaturation: RIPA protein buffer (purchased from Solarbio, Cat. No. R0010) and 5× Loading Buffer (SDS, glycerin, bromophenol blue, TRIS) (purchased from Solarbio, Cat. No. P1040) were added, and the protein samples were denatured at 100° C. for 5 min. • 2.2 Sample loading and electrophoresis: 10% precast gel and the corresponding electrophoresis buffer were used. The same mass of protein sample and protein ladder (purchased from thermo, Cat. No. 26617) were loaded into each well, and electrophoresis at 200 V was performed for 30 min. • 2.3 […]: The gel was excised to remove the excess part. Transferring to PVDF membrane was performed by the wet transfer method (before use, it was necessary to activate the PVDF membrane with methanol for 1 min) at 300 mA for 2 h, during which a lot of heat was generated, and thus cooling with an ice box was required. • 2.4 Blocking: After the transferring, the PVDF membrane was placed in 5% skim milk and blocked with shaking at room temperature for 1 h. • 2.5 Incubating with primary antibody: The PVDF membrane was cut according to the molecular weight indicated on the marker and placed in c-myc (purchased from abcam, Cat. No. ab32072), or GSPT1 (purchased from abcam, Cat. No. ab234433), or CK1α (purchased from abcam, Cat. No. ab206652), or IKZF2 (purchased from proteintech, Cat. No. 13554-1-AP), and GAPDH (purchased from CST, Cat. No. #97166) primary antibodies. The antibodies were diluted with TBST buffer (a solution prepared from TRIS, KCL and NaCl and adjusted to pH 7.4 with hydrochloric acid, and Tween 20 was added) at a ratio of 1:1000, and blocked overnight on a shaker at 4° C. • 2.6 Incubating with secondary antibody: The PVDF membrane incubated with the primary antibody was washed with TBST for 3 times, each time for 10 min. After washing, the membrane was placed in the secondary antibody of the corresponding species, and incubated at room temperature in a shaker for 2 h. • 2.7 Washing membrane and exposure: After incubated with the secondary antibodies, the membrane was washed 3 times with TBST on a shaker, 10 minutes each time. […]

Assay [4] concerns the target T4, GSPT1 protein (Homo sapiens, UniProt P15170).
T4 construct: degradation of myc and GSPT1 proteins in HL60 cells; endogenous in cells; host or cells: HL60
Nature of the assay: GSPT1 protein degradation in HL60 cells (Western blot). Particulars: for Degradation of GSPT1 protein in HL60 cells (FIG. 1, in words): FIG. 1, concentration not stated; for remaining GSPT1 protein at 0.01 µM: HL-60, compound at 10 nM, 24 h, gray value relative to Ctrl (DMSO), read-out: Remaining amount of GSPT1 protein (@10 nM/Ctrl). The procedure: as §1, §2, §3, §5

Assay [5] has as its system HL60 cells. Nature of the assay: Anti-proliferation on HL60 cells (CellTiter-Glo, 3 days). Particulars: Homo sapiens, HL-60, 72 h, 3 days incubation, CTG luminescence, IC50 by XLfit, read-out: HL60 cells Proliferation inhibitory activity. The method, boiled down: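 Log-phase cells were plated at 20000 cells/well and treated with compound dilutions in RPMI-1640 for 3 days, with 0.1% DMSO controls. Proliferation was read by CellTiter-Glo luminescence. IC50 was fitted from the inhibition rates.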

T4 sequence (P15170 whole entry): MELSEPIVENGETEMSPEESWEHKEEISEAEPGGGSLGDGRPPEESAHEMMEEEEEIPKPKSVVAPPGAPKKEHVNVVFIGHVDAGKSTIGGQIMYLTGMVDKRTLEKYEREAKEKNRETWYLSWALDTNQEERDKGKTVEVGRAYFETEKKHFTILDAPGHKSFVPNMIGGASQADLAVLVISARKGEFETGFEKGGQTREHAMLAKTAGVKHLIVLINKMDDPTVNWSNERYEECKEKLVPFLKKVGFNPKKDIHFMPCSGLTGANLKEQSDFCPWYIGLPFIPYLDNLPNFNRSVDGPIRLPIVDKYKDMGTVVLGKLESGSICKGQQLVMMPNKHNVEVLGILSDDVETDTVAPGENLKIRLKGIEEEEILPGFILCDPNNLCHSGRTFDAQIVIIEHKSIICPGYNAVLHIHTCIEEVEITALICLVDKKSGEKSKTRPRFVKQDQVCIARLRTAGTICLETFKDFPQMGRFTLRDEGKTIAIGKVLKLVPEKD
T2 sequence (P48729 whole entry): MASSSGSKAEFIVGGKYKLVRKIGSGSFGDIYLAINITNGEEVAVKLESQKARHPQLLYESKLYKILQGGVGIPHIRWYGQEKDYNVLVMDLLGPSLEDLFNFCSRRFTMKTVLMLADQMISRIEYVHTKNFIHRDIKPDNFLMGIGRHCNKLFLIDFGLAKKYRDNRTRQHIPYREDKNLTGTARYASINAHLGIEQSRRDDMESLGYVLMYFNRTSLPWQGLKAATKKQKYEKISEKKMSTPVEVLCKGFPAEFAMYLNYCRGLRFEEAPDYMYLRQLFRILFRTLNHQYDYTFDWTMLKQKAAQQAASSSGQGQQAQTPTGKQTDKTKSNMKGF
T3 sequence (P01106 whole entry): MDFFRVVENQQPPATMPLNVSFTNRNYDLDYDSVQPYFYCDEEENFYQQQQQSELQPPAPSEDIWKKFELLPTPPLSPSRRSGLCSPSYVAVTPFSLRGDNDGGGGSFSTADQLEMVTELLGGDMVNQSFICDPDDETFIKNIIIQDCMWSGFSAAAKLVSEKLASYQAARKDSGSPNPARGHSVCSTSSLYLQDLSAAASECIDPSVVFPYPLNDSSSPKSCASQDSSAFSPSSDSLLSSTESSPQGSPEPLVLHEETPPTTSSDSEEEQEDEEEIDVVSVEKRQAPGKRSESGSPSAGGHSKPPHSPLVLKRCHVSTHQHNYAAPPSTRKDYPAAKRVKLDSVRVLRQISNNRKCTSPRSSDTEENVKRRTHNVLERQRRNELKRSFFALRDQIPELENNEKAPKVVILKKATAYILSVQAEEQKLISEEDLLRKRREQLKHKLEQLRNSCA
T1 sequence (Q9UKS7 whole entry): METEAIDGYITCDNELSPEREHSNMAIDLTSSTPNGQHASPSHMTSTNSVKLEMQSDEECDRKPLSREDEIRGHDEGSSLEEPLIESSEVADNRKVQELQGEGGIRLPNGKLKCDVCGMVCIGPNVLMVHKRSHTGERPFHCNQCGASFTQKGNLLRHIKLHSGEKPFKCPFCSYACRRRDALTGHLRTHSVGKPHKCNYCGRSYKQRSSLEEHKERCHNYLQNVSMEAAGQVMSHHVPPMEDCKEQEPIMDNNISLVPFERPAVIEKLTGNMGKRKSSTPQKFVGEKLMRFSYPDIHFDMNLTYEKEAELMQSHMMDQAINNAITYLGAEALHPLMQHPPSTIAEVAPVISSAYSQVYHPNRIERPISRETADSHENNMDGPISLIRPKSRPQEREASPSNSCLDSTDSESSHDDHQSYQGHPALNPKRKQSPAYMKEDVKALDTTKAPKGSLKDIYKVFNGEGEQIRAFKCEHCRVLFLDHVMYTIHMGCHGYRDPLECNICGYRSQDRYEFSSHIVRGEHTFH

`O=C1CCC(N2Cc3cc(CNC(=O)C(F)(F)c4ccc(Cl)cc4)ccc3C2=O)C(=O)N1` (stereo not drawn) [CC-90009, reference compound]: in assay [1], the “Remaining amount of IKZF2 protein (@10 nM/Ctrl)” value is listed as 85%. In addition, in assay [2], the “Remaining amount of CK1α protein (@10 nM/Ctrl)” value (“Remaining amount of CK1α protein” below) is on record as 78%. For the same compound, the “Degradation of c-Myc protein in HL60 cells at 10 nM (FIG. 1, in words)” value in assay [3] was “no ability to degrade c-Myc protein”.

In the case of `O=C1CCC(N2Cc3cc(CNCC4CCN(c5ncc(-c6cccc(Cl)c6)cc5C(F)(F)F)CC4)ccc3C2=O)C(=O)N1` (stereo not drawn) [Compound A80], the “Degradation of GSPT1 protein in HL60 cells at 10 nM (FIG. 1, in words)” value in assay [4] (10 nM) was “completely degrade both GSPT1 and c-Myc”. In assay [4], the “Degradation of GSPT1 protein in HL60 cells (FIG. 1, in words)” value is reported as “significantly degrade GSPT1 protein” and the remaining GSPT1 protein at 0.01 µM came to 3%. Besides, the “Remaining amount of IKZF2 protein (@10 nM/Ctrl)” value in assay [1] is 17%. In addition, the IC50 in assay [5] is less than 0.2 nM. Besides, the “Remaining amount of CK1α protein” value in assay [2] worked out at 5%. Besides, in assay [3], the “Degradation of c-Myc protein in HL60 cells at 10 nM (FIG. 1, in words)” value is “completely degrade both GSPT1 and c-Myc”; the remaining activity at 0.01 µM was 0%.

On to `Cc1cccc(-c2cnc(N3CCC(F)(CNCc4ccc5c(c4)CN(C4CCC(=O)NC4=O)C5=O)CC3)c(C(F)(F)F)c2)c1` (stereo not drawn) [Compound A85], for which the remaining GSPT1 protein at 0.01 µM in assay [4] was found to be 3%. In addition, in assay [5], the IC50 is 1 nM. In addition, in assay [3], the remaining activity at 0.01 µM amounted to 8%.

For `O=C1CCC(N2Cc3cc(CNCC4CCN(c5ncc(-c6cccc(Cl)c6)cc5Cl)CC4)ccc3C2=O)C(=O)N1` (stereo not drawn) [Compound A75], the remaining GSPT1 protein at 0.01 µM in assay [4] was found to be 0%. Besides, in assay [5], the IC50 is less than 0.2 nM. The remaining activity at 0.01 µM in assay [3] is 0%.

For `COc1cc(-c2cccc(Cl)c2)cnc1N1CCC(CNCc2ccc3c(c2)CN(C2CCC(=O)NC2=O)C3=O)CC1` (stereo not drawn) [Compound A77], the remaining GSPT1 protein at 0.01 µM in assay [4] was determined as 2%. Further, the IC50 in assay [5] was less than 0.2 nM. In assay [3], the remaining activity at 0.01 µM was determined as 50%.

As for `O=C1CCC(N2Cc3cc(CNCC4CCN(c5ncc(-c6ccccc6)cc5C(F)(F)F)CC4)ccc3C2=O)C(=O)N1` (stereo not drawn) [Compound A92], the remaining GSPT1 protein at 0.01 µM in assay [4] is 0%. The IC50 in assay [5] is less than 0.2 nM. In addition, in assay [3], the remaining activity at 0.01 µM was determined as 6%.

`O=C1CCC(N2Cc3cc(CNCC4(F)CCN(c5ncc(-c6cccc(Cl)c6)cc5C(F)(F)F)CC4)ccc3C2=O)C(=O)N1` (stereo not drawn) [Compound A83]: the remaining GSPT1 protein at 0.01 µM in assay [4] was 0%. In addition, the IC50 in assay [5] turned out to be 1.2 nM. In assay [3], the remaining activity at 0.01 µM was found to be 4%.

Consider `N#Cc1cc(CNCC2CCN(c3ncc(-c4cccc(Cl)c4)cc3C(F)(F)F)CC2)ccc1C(=O)NC1CCC(=O)NC1=O` (stereo not drawn) [Compound A162], for which the “Degradation of GSPT1 protein in HL60 cells at 100 nM (FIG. 3, in words)” value in assay [4] (100 nM) is recorded as “significantly degrade GSPT1 protein”. For the same compound, in assay [4] (300 nM), the “Degradation of GSPT1 protein in HL60 cells at 300 nM (FIG. 2, FIG. 3, in words)” value was “simultaneously degrade both GSPT1 and c-Myc proteins”. Further, in assay [5], the IC50 came to 231 nM. For the same compound, the “Degradation of c-Myc protein in HL60 cells at 300 nM (FIG. 2, FIG. 3, in words)” value in assay [3] (300 nM) was “simultaneously degrade both GSPT1 and c-Myc proteins”.

Consider `O=C1CCC(N2Cc3cc(CNCC4CCN(c5ncc(-c6cccc7ccccc67)cn5)CC4)ccc3C2=O)C(=O)N1` (stereo not drawn) [Compound A62], for which, in assay [4], the “Degradation of GSPT1 protein in HL60 cells (FIG. 1, in words)” value is “significantly degrade GSPT1 protein” and the remaining GSPT1 protein at 0.01 µM was determined as 16%. Moreover, in assay [1], the “Remaining amount of IKZF2 protein (@10 nM/Ctrl)” value is 45%. Moreover, the IC50 in assay [5] worked out at 2 nM. The “Remaining amount of CK1α protein” value in assay [2] is 27%. Moreover, the remaining activity at 0.01 µM in assay [3] turned out to be 17%.

As to `O=C1CCC(N2Cc3cc(CNCC4CCN(c5ncc(-c6cccc(Cl)c6)cc5F)CC4F)ccc3C2=O)C(=O)N1` (stereo not drawn) [Compound A87], the remaining GSPT1 protein at 0.01 µM in assay [4] was determined as 0%. Moreover, the IC50 in assay [5] is 0.6 nM. The remaining activity at 0.01 µM in assay [3] was 11%.

Regarding `O=C1CC[C@H](N2Cc3cc(CNCC4CCN(c5ncc(-c6cccc(Cl)c6)cc5C(F)(F)F)CC4)ccc3C2=O)C(=O)N1` [Compound A81], the remaining GSPT1 protein at 0.01 µM in assay [4] worked out at 0%. In addition, the IC50 in assay [5] is less than 0.2 nM. The remaining activity at 0.01 µM in assay [3] is 0%.

`O=C1CCC(N2Cc3cc(CNCC4CCN(c5cnc(-c6cccc(Cl)c6)cn5)CC4)ccc3C2=O)C(=O)N1` (stereo not drawn) [Compound A102]: in assay [4], the remaining GSPT1 protein at 0.01 µM came to 0%. The IC50 in assay [5] was 0.5 nM. In addition, in assay [3], the remaining activity at 0.01 µM was determined as 0%.

In the case of `O=C1CCC(N2Cc3cc(CNCC4CCN(c5ncc(-c6cccc(C(F)(F)F)c6)cc5F)CC4)ccc3C2=O)C(=O)N1` (stereo not drawn) [Compound A110], the remaining GSPT1 protein at 0.01 µM in assay [4] worked out at 0%. In assay [5], the IC50 was less than 0.2 nM. Moreover, in assay [3], the remaining activity at 0.01 µM came to 3%.

Turning to `N#Cc1cc(-c2cccc(Cl)c2)cnc1N1CCC(CNCc2ccc3c(c2)CN(C2CCC(=O)NC2=O)C3=O)CC1` (stereo not drawn) [Compound A98], the remaining GSPT1 protein at 0.01 µM in assay [4] amounted to 3%. The IC50 in assay [5] came to 1 nM. In addition, the remaining activity at 0.01 µM in assay [3] was found to be 157%.

With `COc1cccc(-c2cnc(N3CCC(CNCc4ccc5c(c4)CN(C4CCC(=O)NC4=O)C5=O)CC3)c(F)c2)c1` (stereo not drawn) [Compound A112], the remaining GSPT1 protein at 0.01 µM in assay [4] worked out at 0%. Further, the IC50 in assay [5] was less than 0.2 nM. The remaining activity at 0.01 µM in assay [3] came to 0%.
